Activity calls are given as the source filed them. The rule behind the calls is not given here.
Assays:
NCI-H460 = assay: Growth inhibition of human NCI-H460 cells after 48 hrs by SRB assay; assay type: functional; conditions: NCI-H460, 48 h
SF-268 [1] = assay: Growth inhibition of human SF268 cells after 48 hrs by SRB assay; assay type: functional; conditions: SF-268, 48 h
MCF7 = assay: Growth inhibition of human MCF7 cells after 48 hrs by SRB assay; assay type: functional; conditions: MCF7, 48 h
Pseudomonas aeruginosa = assay: Antibacterial activity against Pseudomonas aeruginosa ATCC 27853 at 40 ug/spot after 24 hrs by bioautographic agar overlay method; assay type: functional, organism-based
SF-268 [2] = assay: Growth inhibition of human SF268 cells at 100 uM after 48 hrs by SRB assay; assay type: functional, cell-based
Staphylococcus aureus = assay: Antibacterial activity against Staphylococcus aureus ATCC 6538P at 2.5 ug/spot after 24 hrs by bioautographic agar overlay method; assay type: functional, organism-based
Escherichia coli = assay: Antibacterial activity against Escherichia coli ATCC 25922 at 40 ug/spot after 24 hrs by bioautographic agar overlay method; assay type: functional, organism-based

SMILES | GI50 (NCI-H460) [µM] | GI50 (SF-268 [1]) [µM] | GI50 (MCF7) [µM] | Activity (Pseudomonas aeruginosa) | Activity (SF-268 [2]) | Activity (Staphylococcus aureus) | Activity (Escherichia coli)
CC(=O)O[C@H]1[C@H](C)C[C@]2(O)C(=O)/C(C)=C/CC(C)(C)[C@H](OC(C)=O)C[C@@H](OC(=O)c3ccccc3)/C(C)=C/[C@@H]12 [PUBESCENE D] | 37.5 | 90.1 | 37.5 |  |  |  | 
COc1cccc2c1C(=O)c1c(O)c3c(c(O)c1C2=O)C[C@@](O)(C(=O)CO)C[C@@H]3O[C@H]1C[C@H](N)[C@H](O)[C@H](C)O1 [DOXORUBICIN] | 0.094 | 0.093 | 42.8 |  |  |  | 
CC1=C2C=C3CC[C@@H]4C(C)(C)[C@@H](O)CC[C@@]4(C)[C@@H]3C[C@H]2OC1=O [HELIOSCOPINOLIDE B] | > 100 | > 100 | 77 | inactive | inactive | Active | inactive
CC1=C2C=C3CC[C@@H]4C(C)(C)[C@H](O)CC[C@@]4(C)[C@@H]3C[C@H]2OC1=O [HELIOSCOPINOLIDE A] | 72.8 | > 100 | 67.5 | inactive | inactive | Active | inactive
C=C1C[C@H](OC(C)=O)C(=O)C(C)(C)/C=C/[C@@H](C)C(=O)[C@@]2(OC(C)=O)C[C@H](C)[C@H](OC(=O)c3ccccc3)[C@]2(O)[C@H]1OC(C)=O [PUBESCENOL] | 55.6 | 75.2 | 69 |  |  |  | 

From ChEMBL document CHEMBL1151219, “Bioactive diterpenoids, a new jatrophane and two ent-abietanes, and other constituents from Euphorbia pubescens” (2004)
